In article PMC10302202, “The Finding of New In Vivo Metabolite Triptorelin (5-10) in Human Urine Using Liquid Chromatography Coupled with Ion Trap/Time-of-Flight Mass Spectrometry with Dimethyl Sulfoxide Additives in the Mobile Phase” (Molecules, 2023):
Each block holds one compound with its values, some of them ahead of it. Non-standard residues stand in square brackets, D forms with d. Residues, ends and D or L forms follow the SMILES beside them.

Columns and labels:
[1] = Urine levels of leuprorelin and leuprorelin (5-9) in patients after leuprorelin administration (LC/MS-IT-TOF); conditions: SPE; for detection level in urine, 3 h / detection level in urine, 6 h: first time, prostate cancer patient
Procedure: Sample analysis was carried out by using the LCMS-IT-TOF Prominence system (Shimadzu, Japan) and LC model UPLC 8040 [18]. The analytical column was a Poroshell 120 EC-C18 (2.1 mm × 150 mm, 2.7 μm particle) coupled with a guard column (SecurityGuard^TM C18, 3.0 mm). The column compartment temperature was set at 30 °C. The autosampler unit temperature was set at 10 °C. Dry gas was set at 47 kPa, and nebulizer gas was set at 1.5 L/min. The curved desolvation line (CDL) and heating block temperature were set at 250 °C. The spray voltage was set at 4 kV.
Urine samples were collected at the Division of Urology, Department of Surgery, Faculty of Medicine, Ramathibodi Hospital, Bangkok, Thailand. […] Urine samples were collected at 0.0, 3.0, and 6.0 h from 5 patients who had received either 11.25 mg of Enantone® L.P (leuprorelin acetate) or Diphereline® P.R. (triptorelin pamoate) intramuscularly for the first time.
In this study, 200 mL of sodium phosphate buffer (pH 6.8; 0.8 M) was added to a 3.0 mL aliquot of urine. The batch of samples was centrifuged at 5000 rpm for 5 min at 5 °C. The supernatant from each tube was transferred to a new set of protein LoBind® tubes, Eppendorf (Melbourne, Australia) and 20 μL of ISTD (see Section 4.3) was added to each sample [17]. SPE cartridges (see Section 4.1) were activated with 2 mL of methanol followed by 2 mL of ultra-pure water. The supernatants were slowly loaded onto the SPE cartridges (flow rate is approximately 1.0 mL/min) and washed with 1 mL of water, followed by 1 mL of freshly prepared 10% v/v aqueous methanol; then, all washing solutions were removed and dried using a vacuum pump. Elution was performed using freshly prepared 10% v/v formic acid in methanol. Eluates were evaporated at 45 °C to approximately 10 μL in a vacuum centrifuge. The residues were reconstituted in 50 μL of freshly prepared 0.1% formic acid in water.
The mobile phases were 0.1% formic acid in water with or without 1% DMSO (mobile phase A) and acetonitrile (mobile phase B) at a flow rate of 0.3 mL/min. The mobile phase gradient program was as follows: 0.0–2.0 min, 20 to 30% B; 2.0–4.0 min, 30 to 45% B; 4.0–5.0 min, 45 to 100% B; 5.0–6.0 min, hold at 100% B; 6.0–7.0 min, 100% to 20% B; and 7.0–9.0 min hold at 20% B (column equilibration). The injection volume was 30 μL. The total runtime is 9 min.
Mass spectrometric analysis was employed both in the full-scan mode and MS-MS mode. Data analysis was performed using 2 product ion transitions for each compound. LC/MS-IT-TOF mass spectrometric variables, including the m/z of product ions, ion accumulation time, and collision energy (CE), were optimized for maximum abundance for each ion transition. Ionization was performed using ESI in the positive ion mode at 3500 V. The ion accumulation time was 10 milliseconds, and the isolation width was 1.5 Dalton.
The mean and standard deviation of the concentration of leuprorelin, leuprorelin (5-9), triptorelin, and triptorelin (5-10) from 5 patients were used for statistical analysis.

[2] = clinical; conditions: human, in vivo, im, 11.25 mg, detection level in urine, mean
[3] = Urine levels of triptorelin and triptorelin (5-10) in patients after triptorelin administration (LC/MS-IT-TOF); format: in vivo, human; conditions: for detection level in urine, 3 h / detection level in urine, 6 h: first time, prostate cancer patient
Procedure: The column compartment temperature was set at 30 °C. The autosampler unit temperature was set at 10 °C. […] The spray voltage was set at 4 kV.
A further urine sample was collected one month later.
The injection volume was 30 μL. The total runtime is 9 min.

[4] = in vivo; cited from earlier work

Compound: CCNC(=O)[C@@H]1CCCN1C(=O)[C@H](CCCNC(=N)N)NC(=O)[C@H](CC(C)C)NC(=O)[C@@H](CC(C)C)NC(=O)[C@@H](N)Cc1ccc(O)cc1 [Leuprorelin (5-9), leuprorelin (5-9)] (H-Y[dL]LRP-NHEt)
- detection level in urine, 3 h, mean ([1]; mean of n = 5 patients, urine 3 h after 11.25 mg Enantone L.P (leuprorelin acetate) intramuscularly): 74.8 ng/mL
- detection level in urine, 6 h, mean ([1]; mean of n = 5 patients, urine 6 h after 11.25 mg Enantone L.P (leuprorelin acetate) intramuscularly): 78.9 ng/mL
- detection level in urine, 3 h ([1]; patient 1, urine 3 h after 11.25 mg Enantone L.P (leuprorelin acetate) intramuscularly): 68.0 ng/mL
- detection level in urine, 6 h ([1]; patient 1, urine 6 h after 11.25 mg Enantone L.P (leuprorelin acetate) intramuscularly): 73.1 ng/mL
- detection level in urine, 3 h ([1]; patient 2, urine 3 h after 11.25 mg Enantone L.P (leuprorelin acetate) intramuscularly): 106.9 ng/mL
- detection level in urine, 6 h ([1]; patient 2, urine 6 h after 11.25 mg Enantone L.P (leuprorelin acetate) intramuscularly): 18.7 ng/mL
- detection level in urine, 3 h ([1]; patient 3, urine 3 h after 11.25 mg Enantone L.P (leuprorelin acetate) intramuscularly): 162.9 ng/mL
- detection level in urine, 6 h ([1]; patient 3, urine 6 h after 11.25 mg Enantone L.P (leuprorelin acetate) intramuscularly): 100.4 ng/mL
- detection level in urine, 3 h ([1]; patient 4, urine 3 h after 11.25 mg Enantone L.P (leuprorelin acetate) intramuscularly): 16.7 ng/mL
- detection level in urine, 6 h ([1]; patient 4, urine 6 h after 11.25 mg Enantone L.P (leuprorelin acetate) intramuscularly): 23.8 ng/mL
- detection level in urine, 3 h ([1]; patient 5, urine 3 h after 11.25 mg Enantone L.P (leuprorelin acetate) intramuscularly): 19.3 ng/mL
- detection level in urine, 6 h ([1]; patient 5, urine 6 h after 11.25 mg Enantone L.P (leuprorelin acetate) intramuscularly): 178.7 ng/mL

Compound: CC(C)C[C@H](NC(=O)[C@@H](Cc1c[nH]c2ccccc12)NC(=O)[C@@H](N)Cc1ccc(O)cc1)C(=O)N[C@@H](CCCNC(=N)N)C(=O)N1CCC[C@H]1C(=O)NCC(N)=O [Triptorelin (5-10), triptorelin (5-10)] (H-Y[dW]LRPG-NH2)
- detection level in urine, 1 month, mean ([3]; mean line, n = 5 for triptorelin, n = 3 for triptorelin (5-10), urine 1 month after 11.25 mg Diphereline P.R. (triptorelin pamoate) intramuscularly, ND = not detectable): 0.7 ng/mL
- detection level in urine, 3 h, mean ([3]; mean of n = 5 patients, urine 3 h after 11.25 mg Diphereline P.R. (triptorelin pamoate) intramuscularly, SPE, LC/MS-IT-TOF): 105.5 ng/mL
- detection level in urine, 1 month ([3]; patient 1, urine 1 month after 11.25 mg Diphereline P.R. (triptorelin pamoate) intramuscularly, ND = not detectable, SPE, LC/MS-IT-TOF): 1.2 ng/mL
- detection level in urine, 3 h ([3]; patient 1, urine 3 h after 11.25 mg Diphereline P.R. (triptorelin pamoate) intramuscularly, SPE, LC/MS-IT-TOF): 84.3 ng/mL
- detection level in urine, 6 h ([3]; patient 1, urine 6 h after 11.25 mg Diphereline P.R. (triptorelin pamoate) intramuscularly, SPE, LC/MS-IT-TOF): 24.7 ng/mL
- detection level in urine, 1 month ([3]; patient 2, urine 1 month after 11.25 mg Diphereline P.R. (triptorelin pamoate) intramuscularly, ND = not detectable, SPE, LC/MS-IT-TOF): 0.3 ng/mL
- detection level in urine, 3 h ([3]; patient 2, urine 3 h after 11.25 mg Diphereline P.R. (triptorelin pamoate) intramuscularly, SPE, LC/MS-IT-TOF): 25.3 ng/mL
- detection level in urine, 6 h ([3]; patient 2, urine 6 h after 11.25 mg Diphereline P.R. (triptorelin pamoate) intramuscularly, SPE, LC/MS-IT-TOF): 43.5 ng/mL
- detection level in urine, 3 h ([3]; patient 3, urine 3 h after 11.25 mg Diphereline P.R. (triptorelin pamoate) intramuscularly, SPE, LC/MS-IT-TOF): 12.8 ng/mL
- detection level in urine, 6 h ([3]; patient 3, urine 6 h after 11.25 mg Diphereline P.R. (triptorelin pamoate) intramuscularly, SPE, LC/MS-IT-TOF): 3.2 ng/mL
- detection level in urine, 3 h ([3]; patient 4, urine 3 h after 11.25 mg Diphereline P.R. (triptorelin pamoate) intramuscularly, SPE, LC/MS-IT-TOF): 225.7 ng/mL
- detection level in urine, 6 h ([3]; patient 4, urine 6 h after 11.25 mg Diphereline P.R. (triptorelin pamoate) intramuscularly, SPE, LC/MS-IT-TOF): 250.6 ng/mL
- detection level in urine, 1 month ([3]; patient 5, urine 1 month after 11.25 mg Diphereline P.R. (triptorelin pamoate) intramuscularly, ND = not detectable, SPE, LC/MS-IT-TOF): 0.6 ng/mL
- detection level in urine, 3 h ([3]; patient 5, urine 3 h after 11.25 mg Diphereline P.R. (triptorelin pamoate) intramuscularly, SPE, LC/MS-IT-TOF): 179.1 ng/mL
- detection level in urine, 6 h ([3]; patient 5, urine 6 h after 11.25 mg Diphereline P.R. (triptorelin pamoate) intramuscularly, SPE, LC/MS-IT-TOF): 202.0 ng/mL

Compound: GnRH: endogenous 10-amino-acid peptide synthesized and produced in the hypothalamus
- half-life [4]: 2 min

Continued, values first:

- level at 3 h ([2]; 3 h): 65 ng/mL
- level at 6 h ([2]; 6 h): 106 ng/mL
Compound: CCNC(=O)[C@@H]1CCCN1C(=O)[C@H](CCCNC(=N)N)NC(=O)[C@H](CC(C)C)NC(=O)[C@@H](CC(C)C)NC(=O)[C@H](Cc1ccc(O)cc1)NC(=O)[C@H](CO)NC(=O)[C@H](Cc1c[nH]c2ccccc12)NC(=O)[C@H](Cc1c[nH]cn1)NC(=O)[C@@H]1CCC(=O)N1 [Leuprorelin, leuprorelin]

- level at 3 h ([3]; human, urine, im, 11.25 mg, mean of n = 5 patients, urine 3 h after 11.25 mg Diphereline P.R. (triptorelin pamoate) intramuscularly, SPE, LC/MS-IT-TOF, read-out: detection level in urine, 3 h, mean): 64.1 ng/mL
- level at 6 h ([3]; human, urine, im, 11.25 mg, mean of n = 5 patients, urine 6 h after 11.25 mg Diphereline P.R. (triptorelin pamoate) intramuscularly, SPE, LC/MS-IT-TOF, read-out: detection level in urine, 6 h, mean): 62.6 ng/mL
Compound: CC(C)C[C@H](NC(=O)[C@@H](Cc1c[nH]c2ccccc12)NC(=O)[C@H](Cc1ccc(O)cc1)NC(=O)[C@H](CO)NC(=O)[C@H](Cc1c[nH]c2ccccc12)NC(=O)[C@H](Cc1c[nH]cn1)NC(=O)[C@@H]1CCC(=O)N1)C(=O)N[C@@H](CCCNC(=N)N)C(=O)N1CCC[C@H]1C(=O)NCC(N)=O [Triptorelin, triptorelin]
